According to patent publication US20210387973A1, “SUBSTITUTED HETEROCYCLIC COMPOUNDS AND THEIR USE AS RETINOID-RELATED ORPHAN RECEPTOR (ROR) GAMMA-T INHIBITORS” (Technische Universiteit Eindhoven, priority 2019, published 2021):
Read-outs that look alike come from different tables or passages of the source. Values belong to the compound of their own block, whether it stands above or below them.

Key:
[1] = molecular target: T1, His6-RORγt ligand binding domain (Homo sapiens, UniProt P51449); experiment: TR-FRET coactivator recruitment assay; assay type: biochemical; settings: for Dependence of coactivator recruitment inhibition on cholesterol: fixed concentrations of orthosteric agonist cholesterol
T1 sequence (P51449 269-508 limits assumed): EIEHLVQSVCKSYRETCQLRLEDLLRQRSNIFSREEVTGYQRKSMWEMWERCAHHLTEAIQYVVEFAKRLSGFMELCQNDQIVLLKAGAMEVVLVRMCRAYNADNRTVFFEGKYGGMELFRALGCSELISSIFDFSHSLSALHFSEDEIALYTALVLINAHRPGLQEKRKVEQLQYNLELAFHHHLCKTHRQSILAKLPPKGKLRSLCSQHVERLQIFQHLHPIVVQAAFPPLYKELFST
Description: In the present application the IC50 is determined according to a biochemical TR-FRET assay. […] A terbium labelled anti-His antibody (CisBio Bioassays, 61HISTLA) and D2-labelled streptavidin (CisBio Bioassays, 610SADLA) are used at the concentrations recommended by the supplier. Compounds (dissolved in DMSO) are titrated using a 2× dilution series in Corning white low volume, low binding, 384-well plates at a final volume of 10 μL The final DMSO concentration being 2% v/v throughout. […] The data is analyzed with Origin Software. The dose-response curve was fitted represented by:
Where y is the FRET ratio, A1 is the bottom asymptote, A2 is the top asymptote, p is the Hills slope and x is the ligand concentration.
The coactivator recruitment TR-FRET assay was performed in the presence of increasing fixed concentrations of cholesterol, a well characterized orthosteric agonist.
A terbium labelled anti-His antibody (CisBio Bioassays, 61HISTLA) and D2-labelled streptavidin (CisBio Bioassays, 610SADLA) were used at the concentrations recommended by the supplier. Compounds (dissolved in Dimethyl sulfoxide—DMSO) were titrated using a 2× dilution series from a highest final concentration of […] such that the final DMSO concentration was 2% v/v throughout.

[2] = molecular target: T2, His6-RORγt (Homo sapiens, UniProt P51449); experiment: Allosteric ligand displacement assay (AlexaFluor 647 probe, FRET); assay type: binding
T2 sequence (P51449 1-497 isoform P51449-2): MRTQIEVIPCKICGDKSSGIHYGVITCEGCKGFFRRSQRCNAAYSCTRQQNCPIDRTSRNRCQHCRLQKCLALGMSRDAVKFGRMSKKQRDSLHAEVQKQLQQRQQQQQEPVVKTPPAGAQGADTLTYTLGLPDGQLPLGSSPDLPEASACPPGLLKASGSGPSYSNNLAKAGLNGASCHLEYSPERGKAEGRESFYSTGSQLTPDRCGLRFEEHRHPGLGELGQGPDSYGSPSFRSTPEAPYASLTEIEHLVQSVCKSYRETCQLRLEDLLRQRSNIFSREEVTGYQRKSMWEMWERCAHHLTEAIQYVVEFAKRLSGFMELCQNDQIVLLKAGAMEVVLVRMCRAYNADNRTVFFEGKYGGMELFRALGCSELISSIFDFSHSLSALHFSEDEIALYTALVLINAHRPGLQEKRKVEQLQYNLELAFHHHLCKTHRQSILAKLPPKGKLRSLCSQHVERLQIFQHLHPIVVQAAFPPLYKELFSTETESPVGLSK
Source text: To provide further evidence for allosteric ligand binding we used an orthogonal assay to directly probe for allosteric ligand binding (as opposed to measuring the indirect effects on coactivator recruitment).

[3] = Table 2, cholesterol concentration of 0 μM, read-out: IC50

Compound: O=C(O)c1ccc(/N=C/c2c(-c3c(Cl)cccc3C(F)(F)F)noc2-c2cc[nH]c2)cc1 [AS89]
IC50 [1, 3]: 46.6 µM

Compound: O=C(O)c1ccc(NCc2c(-c3c(Cl)cccc3C(F)(F)F)noc2-c2cc[nH]c2)cc1 [Compound 1]
Hill slope ([1]; 0 μM Cholesterol): −0.45 ± 0.02
Hill slope ([1]; 0.1 μM Cholesterol): −0.74 ± 0.03
Hill slope ([1]; 1.0 μM Cholesterol): −0.86 ± 0.03
Dependence of coactivator recruitment inhibition on cholesterol [1]: independent of increasing concentrations of cholesterol

Compound: C[C@H]1O[C@@H](O[C@H]2[C@@H](O)C[C@H](O[C@H]3[C@@H](O)C[C@H](O[C@H]4CC[C@@]5(C)[C@H](CC[C@@H]6[C@@H]5C[C@@H](O)[C@]5(C)[C@@H](C7=CC(=O)OC7)CC[C@]65O)C4)O[C@@H]3C)O[C@@H]2C)C[C@H](O)[C@@H]1O [Compound C, reference compound]
Hill slope ([1]; 0 μM Cholesterol): −0.53 ± 0.03
IC50 ([1]; 0 μM Cholesterol, read-out: IC50): 0.774 ± 0.0816 µM
Hill slope ([1]; 0.1 μM Cholesterol): −0.54 ± 0.02
IC50 ([1]; 0.1 μM Cholesterol, read-out: IC50): 5.47 ± 0.456 µM
Hill slope ([1]; 1.0 μM Cholesterol): −0.87 ± 0.04
IC50 ([1]; 1.0 μM Cholesterol, read-out: IC50): 32.4 ± 1.69 µM
IC50 ([1]; as listed beside probe competition (0 μM cholesterol values), read-out: Coactivator Recruitment IC50): 0.774 ± 0.0816 µM
Dependence of coactivator recruitment inhibition on cholesterol [1]: cholesterol-dependent activity profile
IC50 ([2]; displacement of Alexa Fluor 647 probe, read-out: AlexaFluor Probe Competition IC50): > 5 µM
IC50 ([2]; read-out: IC50 for displacement of the Alexa Fluor 647 probe): > 50 µM

Compound: O=C(O)c1ccc(S(=O)(=O)Nc2c(-c3c(Cl)cccc3C(F)(F)F)noc2-c2ccccc2)cc1 [GV031]
IC50 [1, 3]: 62.6 µM

Compound: O=C(O)c1ccc(CNc2c(-c3c(Cl)cccc3C(F)(F)F)noc2-c2ccccc2)cc1 [GV032]
IC50 [1, 3]: 30.9 µM

Compound: O=C(O)c1ccc(NCc2c(-c3c(Cl)cccc3C(F)(F)F)noc2-c2ccccc2)cc1 [GV068]
IC50 [1, 3]: 9.6 µM

Compound: O=C(O)c1ccc(NC(=O)c2c(-c3c(Cl)cccc3C(F)(F)F)noc2-c2ccccc2)cc1 [RD032]
IC50 [1, 3]: 53.5 µM

Compound: O=C(O)c1cccc(NC(=O)c2c(-c3c(Cl)cccc3C(F)(F)F)noc2-c2ccccc2)c1 [RD061]
IC50 [1, 3]: 73.9 µM

Compound: O=C(O)c1ccc(CNC(=O)c2c(-c3c(Cl)cccc3C(F)(F)F)noc2-c2ccccc2)cc1 [RD065]
IC50 [1, 3]: 8.8 µM

Compound: O=C(O)c1ccc(NC(=O)c2c(-c3c(Cl)cccc3C(F)(F)F)noc2-c2ccccc2)cc1F [RD082]
IC50 [1, 3]: 91.1 µM

More lines, in order of falling IC50 [1, 3], values ahead:

IC50 [1, 3]: 8.2 µM
Compound: O=C(O)c1ccc(-c2c(-c3c(Cl)cccc3C(F)(F)F)noc2-c2ccccc2)cc1 [GV020]

IC50 [1, 3]: 6.6 µM
Compound: O=C(O)c1ccc(NCc2c(-c3c(Cl)cccc3C(F)(F)F)noc2-c2cccc(O)c2)cc1 [RD369]

IC50 [1, 3]: 1.8 µM
Compound: O=C(O)c1ccc(NCc2c(-c3c(Cl)cccc3C(F)(F)F)noc2-c2cccs2)cc1 [RD329]

IC50 [1, 3]: 1.1 µM
Compound: O=C(O)c1ccc(NCc2c(-c3c(Cl)cccc3C(F)(F)F)noc2-c2ccco2)cc1 [RD149]
